Legend:
[1] = test system: AMPK; assay: AMPK activation assay (western blot phospho-AMPK Thr172) in C2C12; assay type: cell-based, mouse; conditions: C2C12 cells, 30 min treatment
In short: (§1)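 Mouse C2C12, mouse 3T3-L1 and human Hep G2 cells in high-glucose DMEM/10% FBS were treated with compounds for 30 min, 24 h after plating. Lysates were western-blotted for phospho-AMPK (Thr172) and total AMPK, ECL-detected, and bands quantified by densitometry.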

[2] = test system: AMPK; assay: AMPK activation assay (western blot phospho-AMPK Thr172) in 3T3-L1; assay type: cell-based, mouse; conditions: 3T3-L1 cells, 30 min treatment
In short: as §1

[3] = test system: AMPK; assay: AMPK activation assay (western blot phospho-AMPK Thr172) in Hep G2; assay type: cell-based, human; conditions: Hep G2 cells, 30 min treatment
In short: as §1

[4] = test system: muscle cell C2C12; assay: Glucose uptake in vitro (fluorescent glucose analog 2-NBDG); assay type: cell-based, mouse; conditions: 30 min treatment, mean±SEM of three experiments
Experimental: Effects of representative compounds on glucose uptake were analyzed in muscle cell C2C12 by using fluorescent glucose analog (2-NBDG, Molecular Probes). C2C12 were treated with selected novel AMPK activator for 30 min at 37° C. then exposed to 500 μM of fluorescent glucose analog. After 5 min incubation at room temperature, cells were washed three times with Kreb-Hepes buffered solution and fix in 70% alcohol. The fluorescence of glucose analog in cells was detected using a Fluorescence Microplate Reader System at 480-nm excitation and 530-nm emission wavelength.
Data are presented as the mean±SEM of three independent experiments.

Structure (SMILES) | AMPK activation (% to control) C2C12 ([1]; 1 microM) | AMPK activation (% to control) C2C12 ([1]; 10 microM) | AMPK activation (% to control) C2C12 ([1]; 100 microM) | AMPK activation (% to control) C2C12 ([1]; 200 microM) | AMPK activation (% to control) 3T3-L1 ([2]; 1 microM) | AMPK activation (% to control) 3T3-L1 ([2]; 10 microM) | AMPK activation (% to control) 3T3-L1 ([2]; 100 microM) | AMPK activation (% to control) 3T3-L1 ([2]; 200 microM) | AMPK activation (% to control) Hep G2 ([3]; 1 microM) | AMPK activation (% to control) Hep G2 ([3]; 10 microM) | AMPK activation (% to control) Hep G2 ([3]; 100 microM) | AMPK activation (% to control) Hep G2 ([3]; 200 microM) | Glucose uptake (% to control) ([4]; C2C12, 1 microM) | Glucose uptake (% to control) ([4]; C2C12, 10 microM) | Glucose uptake (% to control) ([4]; C2C12, 100 microM) | Glucose uptake (% to control) ([4]; C2C12, 600 microM)
Oc1nc(NC2CCCCC2)nc2nc[nH]c12 [2-cyclohexylamino-6-hydroxypurine] | 108 % to control | 118 % to control | 209 % to control | 321 % to control | 118 % to control | 172 % to control | 283 % to control | 375 % to control | 111 % to control | 137 % to control | 248 % to control | 351 % to control | 108 ± 2.1 % to control | 195 ± 11.9 % to control | 251 ± 16.2 % to control | 311 ± 10.7 % to control
Cc1ccc(CNc2ncnc3nc[nH]c23)cc1 [6-(4-methylbenzylamino)purine] | 112 % to control | 158 % to control | 270 % to control | 358 % to control | 110 % to control | 163 % to control | 259 % to control | 347 % to control | 106 % to control | 121 % to control | 245 % to control | 348 % to control | 114 ± 9.2 % to control | 205 ± 14.6 % to control | 281 ± 11.5 % to control | 309 ± 9.1 % to control
Oc1ncnc2nc[nH]c12 [6-hydroxypurine] | 120 % to control | 148 % to control | 233 % to control | 341 % to control | 118 % to control | 155 % to control | 198 % to control | 325 % to control | 114 % to control | 146 % to control | 165 % to control | 330 % to control | 109 ± 2.2 % to control | 242 ± 23.7 % to control | 289 ± 21.4 % to control | 318 ± 21.2 % to control
CNc1ncnc2nc[nH]c12 [Example 6-methylaminopurine, 6-methylaminopurine] | 103 % to control | 108 % to control | 213 % to control | 328 % to control | 107 % to control | 129 % to control | 241 % to control | 347 % to control | 116 % to control | 141 % to control | 259 % to control | 363 % to control |  |  |  | 
Nc1nc2[nH]cnc2c(=S)[nH]1 [Example 6-thioquanine] | 116 % to control | 141 % to control | 215 % to control | 301 % to control | 115 % to control | 132 % to control | 241 % to control | 289 % to control | 116 % to control | 133 % to control | 229 % to control | 311 % to control |  |  |  | 
O=c1[nH]c(=O)n([C@H]2C[C@H](O)[C@@H](CO)O2)cc1F [Floxuridine] | 117 % to control | 144 % to control | 231 % to control | 312 % to control | 116 % to control | 141 % to control | 222 % to control | 343 % to control | 117 % to control | 147 % to control | 206 % to control | 308 % to control |  |  |  | 
Nc1nc2nc[nH]c2c(=O)[nH]1 [Guanine] | 105 % to control | 117 % to control | 241 % to control | 304 % to control | 107 % to control | 121 % to control | 208 % to control | 312 % to control | 119 % to control | 144 % to control | 199 % to control | 335 % to control |  |  |  | 
O=c1[nH]cnc2nc[nH]c12 [Hypoxanthine] | 108 % to control | 121 % to control | 238 % to control | 309 % to control | 108 % to control | 128 % to control | 231 % to control | 335 % to control | 105 % to control | 124 % to control | 225 % to control | 341 % to control |  |  |  | 
O=c1cc[nH]c(=O)[nH]1 [Uracil] | 105 % to control | 109 % to control | 264 % to control | 358 % to control | 114 % to control | 123 % to control | 248 % to control | 372 % to control | 118 % to control | 144 % to control | 237 % to control | 359 % to control |  |  |  | 

Reference: US9938279B2, “Method for treating disease or condition susceptible to amelioration by AMPK activators and compounds of formula which are useful to activate AMP-activated protein kinase (AMPK)” (ENERGENESIS BIOMEDICAL CO., LTD, priority 2013, dated 2018)
